“Also recorded” adds a separate entry of the source.
Tests used:
[1] = tested on: Single Prolonged Stress (SPS) model of PTSD; assay: Social interaction test with juvenile rat, three weeks after SPS stressors; format: in vivo; conditions: intranasal NPY 200 μg or D-H 150 μg per rat immediately after SPS; SI 7 days after the EPM
Protocol: (§1) FIG. 6 depicts a diagram of the experimental procedure (FIGS. 7-8). […] After two weeks the animals were tested on the elevated plus maze (EPM) for 5 min and 7 days later for social interaction (SI).
(§2) The experimental design was as depicted in FIG. 6. […] After two weeks they were tested on the elevated plus maze (EPM) for 5 min and 7 days later for social interaction (SI).

[2] = tested on: Single Prolonged Stress (SPS) model of PTSD; assay: Forced Swim Test (FST) 12 days after SPS stressors, early intervention with intranasal peptide; format: in vivo; conditions: intranasal 150 μg/rat immediately after SPS, vs SPS/V
Protocol: (§3) After 7 days, the animals were tested on the elevated plus maze (EPM) for 5 min for various features of anxiety and locomotion and 5 days later for depressive/despair symptoms on the Forced Swim Tet (FST).
The immobility time on the FST, which reflects depressive-lie behavior, despair or altered coping style was determined.
(§4) After a two week accommodation period rats were exposed to SPS stressors. […] Control unstressed rats were handled briefly and weighed on the same day. They were left undisturbed for a week and then tested for anxiety on Elevated Plus Maze (EPM) together with unstressed control rats. Five days later all the animals were tested for depresssive/dispair behavior by the Forced Swim Test (FST).

[3] = tested on: Single Prolonged Stress (SPS) model of PTSD; assay: EPM after intranasal treatment given 2 weeks after SPS (reversal of manifested symptoms); format: in vivo; conditions: intranasal 300 μg/rat given 2 weeks after SPS; EPM four days later; vs SPS/V
Text: FIG. 9A. Scheme of the experiment; FIG. 9B. Duration in the closed arms, an indication of anxiety; FIG. 9C. Anxiety index. *p<0.05, ***p<0.001.

[4] = tested on: Single Prolonged Stress (SPS) model of PTSD; assay: Elevated plus maze (EPM) two weeks after SPS stressors, early intervention with intranasal peptide; format: in vivo; conditions: intranasal NPY 200 μg or D-H 150 μg per rat immediately after SPS
Protocol: as §1, §2

[5] = tested on: Single Prolonged Stress (SPS) model of PTSD; assay: Elevated plus maze (EPM) one week after SPS stressors, early intervention with intranasal peptide; format: in vivo, rat
Protocol: as §3
Based on the performance on the EPM the anxiety index was calculated for each rat. […] (FIG. 2B)
as §4
Based on the performance on the EPM the anxiety index was calculated for each rat. The anxiety index=1−[(time spent in open arm/total time on the maze)/2+(number of entries to the open arms/total exploration on the maze)/2] and is shown in FIG. 2. […] Each point represents the values for an individual animal.

[6] = tested on: SPS elicited development of depressive symptoms; conditions: intranasal infusion after traumatic stress; cited from earlier work
[7] = intranasal 150 μg/rat immediately after SPS, one week after SPS
[8] = intranasal 150 μg/rat immediately after SPS, one week after SPS, listed as [D-^26His]NPY

## [D^26-His]NPY [[D^26His]NPY]
[1]
  interaction time on the social interaction test: prevented
  number of approaches on the social interaction test: prevented
[2]; listed as D-H
  immobility time in the Forced Swim Test: superior to NPY
[2]; listed as DH
  immobility time in the Forced Swim Test: reduced; also recorded: significantly more effective than NPY
[3]
  duration in the closed arms of the EPM: less time in the closed arms
[4]
  entries and duration in the open arms of the EPM: as effective as NPY
[5]; [7]
  distance travelled on the EPM (locomotion): did not reduce the distance traveled
  duration of head dips on the EPM: prevent the SPS triggered reduction; also recorded: more effective than NPY
  frequency of head dips on the EPM: prevent the SPS triggered reduction; also recorded: more effective than NPY
[5]; [8]
  duration of head dips on the EPM: recovered
  frequency of head dips on the EPM: recovered

## [Leu^31Pro^34]NPY [reference compound]
[6]
  development of depressive-like symptoms after traumatic stress: prevented development of depressive-like symptoms
[5]; intranasal, at a concentration which prevents SPS elicited depressive symptoms, seven days after SPS
  SPS elicited anxiety (anxiety index on the EPM, FIG. 2B): did not reduce the SPS elicited anxiety; also recorded: ineffective

— patent US12551533B2, “Intranasal neuropeptides for use in stress-related impairments” (New York Medical College, priority 2019, dated 2026)
